Data: patent US10194663B2, “Chemical stabilization of iodosulfuron-methyl sodium salt by hydroxystearates” (BAYER CROPSCIENCE AG, priority 2012, dated 2019)

Assay: Storage stability: degradation of IMS in OD formulations, determined by HPLC
Type: physicochemical
Conditions: for Degradation of IMS after 1 week at 54° C. / Degradation of IMS after 4 weeks at 40° C. / Degradation of IMS after 8 weeks at 40° C. / Degradation of IMS after 12 weeks at 35° C. / Degradation of IMS after 2 weeks at 54° C. / Degradation of IMS after 8 weeks at 40° C0: Emulsogen EL 400 10%
From the text: The sodium salt of iodosulfuron-methyl (iodosulfuron-methyl-sodium, IMS) is finely dispersed by means of a rotor-stator mixer together with a customary emulsifier such as Emulsogen EL 400® (castor oil polyglycol ether from Clariant AG) in the solvents customary for OD formulations (oil dispersion formulations), such as rapeseed oil methyl ester or Solvesso 200 ND® (aromatics mixture from Exxon AG). Further formulation auxiliaries such as the thickener Bentone 38® (sheet silicate from Elementis AG) or the polymers Ligalub PEG 400 MO® (polyethylene glycol monooleate from Peter Greven GmbH), Ligalub 12 GE® (glyceryl dioleate from Peter Greven GmbH) or Ligalub 71 KE® (complex ester from Peter Greven GmbH) can, inter alia, also be added to the system. Furthermore, lithium hydroxystearate (lithium soap of a 12-hydroxystearic acid) was also additionally added for comparison purposes to each mixture.
Tables 1 to 9 show the compositions of the tested OD formulations (% data in % by weight).
The degradation of the IMS is determined here by means of HPLC.
The degradation is expressed here in tables 1 to 9 in—xx %. This means that after the relevant period xx % of the originally present IMS was already degraded.

[1] = Table 1 OD formulation: IMS 0.5%, Lithium hydroxystearate 0%, Bentone 38 1.2%, Rapeseed oil methyl ester 88.3%
[2] = Table 1 OD formulation: IMS 0.5%, Lithium hydroxystearate 1%, Bentone 38 1.2%, Rapeseed oil methyl ester 87.3%
[3] = Table 2 OD formulation: IMS 0.5%, Lithium hydroxystearate 0%, Solvesso 200 ND 89.5%
[4] = Table 2 OD formulation: IMS 0.5%, Lithium hydroxystearate 0.5%, Solvesso 200 ND 89%
[5] = Table 2 OD formulation: IMS 0.5%, Lithium hydroxystearate 1%, Solvesso 200 ND 88.5%
[6] = Table 2 OD formulation: IMS 0.5%, Lithium hydroxystearate 5%, Solvesso 200 ND 84.5%
[7] = Table 3 OD formulation: IMS 2%, Lithium hydroxystearate 0%, Solvesso 200 ND 88%
[8] = Table 3 OD formulation: IMS 2%, Lithium hydroxystearate 1%, Solvesso 200 ND 87%
[9] = Table 4 OD formulation: IMS 0.5%, Lithium hydroxystearate 0%, Ligalub PEG 400 MO 15%, Solvesso 200 ND 74.5%
[10] = Table 4 OD formulation: IMS 0.5%, Lithium hydroxystearate 1%, Ligalub PEG 400 MO 15%, Solvesso 200 ND 73.5%
[11] = Table 5 OD formulation: IMS 0.5%, Lithium hydroxystearate 0%, Ligalub PEG 400 MO 30%, Bentone 38 1.2%, Rapeseed oil methyl ester 58.3%
[12] = Table 5 OD formulation: IMS 0.5%, Lithium hydroxystearate 1%, Ligalub PEG 400 MO 30%, Bentone 38 1.2%, Rapeseed oil methyl ester 57.3%
[13] = Table 6 OD formulation: IMS 2%, Lithium hydroxystearate 0%, Ligalub PEG 400 MO 15%, Solvesso 200 ND 73%
[14] = Table 6 OD formulation: IMS 2%, Lithium hydroxystearate 1%, Ligalub PEG 400 MO 15%, Solvesso 200 ND 72%
[15] = Table 7 OD formulation: IMS 0.5%, Lithium hydroxystearate 0%, Ligalub 12 GE 30%, Bentone 38 1.2%, Rapeseed oil methyl ester 58.3%
[16] = Table 7 OD formulation: IMS 0.5%, Lithium hydroxystearate 1%, Ligalub 12 GE 30%, Bentone 38 1.2%, Rapeseed oil methyl ester 57.3%
[17] = Table 8 OD formulation: IMS 0.5%, Lithium hydroxystearate 0%, Ligalub 71 KE 15%, Solvesso 200 ND 74.5%
[18] = Table 8 OD formulation: IMS 0.5%, Lithium hydroxystearate 1%, Ligalub 71 KE 15%, Solvesso 200 ND 73.5%
[19] = Table 9 OD formulation: IMS 0.5%, Lithium hydroxystearate 0%, Ligalub 71 KE 30%, Bentone 38 1.2%, Rapeseed oil methyl ester 58.3%
[20] = Table 9 OD formulation: IMS 0.5%, Lithium hydroxystearate 1%, Ligalub 71 KE 30%, Bentone 38 1.2%, Rapeseed oil methyl ester 57.3%

COC(=O)c1ccc(I)cc1S(=O)(=O)[N-]C(=O)Nc1nc(C)nc(OC)n1.[Na+] [IMS, iodosulfuron-methyl sodium salt]
Degradation of IMS after 1 week at 54° C. [1]: −78.3% | Degradation of IMS after 4 weeks at 40° C. [1]: −46.4% | Degradation of IMS after 8 weeks at 40° C. [1]: −69.7% | Degradation of IMS after 12 weeks at 35° C. [1]: −57.8% | Degradation of IMS after 1 week at 54° C. [2]: −23.9% | Degradation of IMS after 4 weeks at 40° C. [2]: −5% | Degradation of IMS after 8 weeks at 40° C. [2]: −8.7% | Degradation of IMS after 12 weeks at 35° C. [2]: −6.3% | Degradation of IMS after 2 weeks at 54° C. [3]: −87.9% | Degradation of IMS after 4 weeks at 40° C. [3]: −29.9% | Degradation of IMS after 2 weeks at 54° C. [4]: −32.2% | Degradation of IMS after 4 weeks at 40° C. [4]: −7.4% | Degradation of IMS after 2 weeks at 54° C. [5]: −28% | Degradation of IMS after 4 weeks at 40° C. [5]: −3.4% | Degradation of IMS after 2 weeks at 54° C. [6]: −14.7% | Degradation of IMS after 4 weeks at 40° C. [6]: −3.6% | Degradation of IMS after 2 weeks at 54° C. [7]: −34.6% | Degradation of IMS after 4 weeks at 40° C. [7]: −5.2% | Degradation of IMS after 2 weeks at 54° C. [8]: −13.1% | Degradation of IMS after 4 weeks at 40° C. [8]: −0.2% | Degradation of IMS after 2 weeks at 54° C. [9]: −93.2% | Degradation of IMS after 4 weeks at 40° C. [9]: −34.9% | Degradation of IMS after 2 weeks at 54° C. [10]: −37.8% | Degradation of IMS after 4 weeks at 40° C. [10]: −7.2% | Degradation of IMS after 2 weeks at 54° C. [11]: −87.4% | Degradation of IMS after 4 weeks at 40° C. [11]: −51.6% | Degradation of IMS after 8 weeks at 40° C0 [11]: −77.2% | Degradation of IMS after 12 weeks at 35° C. [11]: −66.8% | Degradation of IMS after 2 weeks at 54° C. [12]: −45.8% | Degradation of IMS after 4 weeks at 40° C. [12]: −14.8% | Degradation of IMS after 8 weeks at 40° C0 [12]: −21% | Degradation of IMS after 12 weeks at 35° C. [12]: −13.6% | Degradation of IMS after 2 weeks at 54° C. [13]: −81.8% | Degradation of IMS after 4 weeks at 40° C. [13]: −32.9% | Degradation of IMS after 2 weeks at 54° C. [14]: −32.7% | Degradation of IMS after 4 weeks at 40° C. [14]: −3.2% | Degradation of IMS after 1 week at 54° C. [15]: −42.4% | Degradation of IMS after 4 weeks at 40° C. [15]: −76.6% | Degradation of IMS after 8 weeks at 40° C. [15]: −65.9% | Degradation of IMS after 12 weeks at 35° C. [15]: −55.7% | Degradation of IMS after 1 week at 54° C. [16]: −11.8% | Degradation of IMS after 4 weeks at 40° C. [16]: −3.6% | Degradation of IMS after 8 weeks at 40° C. [16]: −4.7% | Degradation of IMS after 12 weeks at 35° C. [16]: −5.3% | Degradation of IMS after 2 weeks at 54° C. [17]: −66.6% | Degradation of IMS after 4 weeks at 40° C. [17]: −65% | Degradation of IMS after 2 weeks at 54° C. [18]: −9.86% | Degradation of IMS after 4 weeks at 40° C. [18]: −5.6% | Degradation of IMS after 1 week at 54° C. [19]: −75.8% | Degradation of IMS after 4 weeks at 40° C. [19]: −39.6% | Degradation of IMS after 8 weeks at 40° C. [19]: −63.6% | Degradation of IMS after 12 weeks at 35° C. [19]: −54.6% | Degradation of IMS after 1 week at 54° C. [20]: −11.4% | Degradation of IMS after 4 weeks at 40° C. [20]: −2.3% | Degradation of IMS after 8 weeks at 40° C. [20]: −3% | Degradation of IMS after 12 weeks at 35° C. [20]: −3%

CCCCCCC(O)CCCCCCCCCCC(=O)[O-].[Li+] (stereo not drawn) [lithium hydroxystearate]
stabilizing effect on the sodium salt of iodosulfuron (hydroxystearate as thickener in oil-based liquid formulations of iodosulfuron-methyl sodium salt): particularly significantly stabilizing effect
